This note sets out measurements from patent publication US8512708B2, “GP96 derived peptides” (Compugen Ltd., priority 2008, dated 2013).

One test deals with THP-1 cells. In words: LPS-induced TNF-α secretion from THP-1 cells (ELISA). The test is classed as cell-based, human. The note with it: LPS 100 ng/ml, 4 hours.
A further test relates to A549 cells. It is filed as cell-based, human. The note with it: 48 hours, MTT, 0.3-90 μg/ml peptide. Here is the method:
A549 cells were seeded at 6000 cells/well in […] of media (DMEM medium+5% FBS) in a 96 well plate and incubated over-night (O.N). Cells were starved in 100 μl of serum free medium (SFM) containing 0.1% FBS, O.N. All lyophilized peptides were dissolved in H2O (prewarmed to 50° C.) and hand-stirred, giving a final concentration of 1 mg/ml. Reconstituted peptides were added in concentrations of 0.3, 1, 3, 10, 30 or 90 μg/ml and the cells were incubated for 48 hours.
Cell proliferation was measured using MTT assay as follows: 20 μl of MTT solution ((3-[4,5-Dimethyl-2-thiazolyl]-2,5-diphenyl-2H-tetrazolium bromide, Sigma Cat#M5655, lot#085k5322, 1 gr was dissolved in 200 ml H2O and filtered, giving a final concentration of 5 mg/ml) were added to each well for 4 hrs, after which the medium was vacuumed and 100 μl of DMSO were added to each well. Absorbance was measured in an ELISA reader at 492 nm. The results are shown in FIG. 8, and depicted in percent relative to untreated cells (which was defined as 100).

The test system of the next test is HCT116. In words: Proliferation of HCT116 cells (MTT assay). The test is classed as cell-based, human. The note with it: HCT116, 48 hours, 0.003-60 μg/ml peptide. Here is the method:
(§1) Cells were seeded at 5000 cells/well in 200 μl of media (DMEM medium+5% FBS) in a 96 well plate and incubated over-night (O.N). Cells were starved in 100 μl of serum free medium (SFM) containing 0.1% FBS, O.N. All lyophilized peptides were dissolved in H2O (prewarmed to 50° C.) and hand-stirred, giving a final concentration of 1 mg/ml. Reconstituted peptides were added in concentrations of 0.003, 0.009, 0.028, 0.084, 0.25, 0.76, 2.28, 6.66, 20 and 60 μg/ml and the cells were incubated for 48 hours.
(§2) Cell proliferation was measured using MTT assay: 20 μl of MTT solution ((3-[4,5-Dimethyl-2-thiazolyl]-2,5-diphenyl-2H-tetrazolium bromide, Sigma Cat#M5655, lot#085k5322, 1 gr was dissolved in 200 ml H2O and filtered, giving a final concentration of 5 mg/ml) were added to each well for 4 hrs, after which the medium was vacuumed and 100 μl of DMSO were added to each well. Absorbance was measured in an ELISA reader at 492 nm.
For orientation: Tetrazolium assays rely on reduction of a dye to a coloured formazan, in cell work by metabolically active cells.

In another test the test system is SW480. In words: Proliferation of SW480 cells (MTT assay). The test is classed as cell-based, human. The note with it: SW480, 48 hours, 0.003-60 μg/ml peptide. Here is the method: as §1, §2
For a further test, the system named is HT29. In words: Proliferation of HT29 cells (MTT assay). The note with it: HT29, 48 hours, 0.003-60 μg/ml peptide. It is filed as cell-based, human. As for the experimental part: as §1, §2
For a further test, the system named is MCF7. Briefly: Proliferation of MCF7 cells (MTT assay). The test is classed as cell-based, human. The note with it: MCF7, 48 hours, 0.003-60 μg/ml peptide. Here is the method: as §1, §2
A further test deals with human PBMCs. In words: Anti-CD3-induced cytokine release from human PBMCs (Luminex). The test is classed as cell-based. The note with it: PBMCs treated with anti-CD3 antibody (1 μg/ml), 48 hours; peptide 30 μg/ml=6 μM (FIG. 2). As for the experimental part:
Peptides were assayed at two concentrations (3 and 30 ug/mL) in duplicates. Cryopreserved PBMCs were drip-thaw and seeded at 1×10^4 cells/well in 140 μl of media per well. Cells were incubated for 1 hour at 37° C. at 5% CO2 and a peptide of the invention or Dexamethasone as a control, were added in 20 μl of medium. Cells were incubated for 30 minutes and anti-CD3 antibody (1 μg/ml) was added at the appropriate concentration in 40 μl of medium. Plates were incubated for 48 hours, spinned at 1200 rpm for 10 minutes and supernatants were collected and stored at −80° C. Cytokines' concentration was measured using a Luminex analyzer (IS100, Luminex Corporation) and bead-based reagents (Upstate Biotechnology).

Experimental for THP-1 cells: THP-1 cells were seeded at 2×10^5 cells/ml in 100 μl of media (RPMI-1640 medium+10% FBS) in a 96 well plates. The reconstituted peptide at final concentrations of 20, 60, 180, 540, 1620, 4860 or 14580 nM were added to the relevant wells in a volume of 100 μl and LPS at a final concentration of 100 ng/ml (Sigma, Cat # L-6529, Lot #054K4022, stock concentration of 1 mg/ml) was added to the wells in a volume of 100 μl. Plates were incubated for 4 hours and then centrifuged 5 minutes at 4000 rpm. Conditioned medium (200 μl) was transferred to new plates and kept at −20° C. The concentration of TNF-α was measured using TNF-α ELISA (R&D Systems, Human TNF-alpha Quantikine ELISA Kit, Cat # STA00C).
THP-1 cells were seeded at 2×10^5 cells/ml in 100 μl of media (RPMI-1640 medium+10% FBS) in 96 well plates. The reconstituted peptide at final concentrations of 0.3, 1, 10, 30 or 60 μg/ml were added to the relevant wells in a volume of 100 μl and LPS at a final concentration of 100 ng/ml (Sigma, Cat # L-6529, Lot #054K4022, stock concentration of 1 mg/ml) was added to the wells in a volume of 100 Plates were incubated for 4 hours and then centrifuged 5 minutes at 4000 rpm. Conditioned medium (200 μl) was transferred to new plates and kept at −20° C. The concentration of TNF-α was measured using TNF-α ELISA (R&D Systems, Human TNF-alpha Quantikine ELISA Kit, Cat # STA00C).

As to `CC[C@H](C)[C@H](NC(=O)[C@H](CCCCN)NC(=O)[C@H](CCCCN)NC(=O)[C@@H](NC(=O)[C@H](CCSC)NC(=O)[C@H](CC(=O)O)NC(=O)[C@H](CC(C)C)NC(=O)[C@@H](NC(=O)[C@H](CCCCN)NC(=O)[C@H](CCCNC(=N)N)NC(=O)[C@@H](NC(=O)[C@H](CC(C)C)NC(=O)[C@H](CCCCN)NC(=O)[C@H](CCCCN)NC(=O)[C@H](CCCNC(=N)N)NC(=O)[C@@H](NC(=O)[C@@H](NC(=O)[C@H](CCCCN)NC(=O)[C@H](CC(C)C)NC(=O)[C@H](CC(C)C)NC(=O)[C@H](CCCCN)NC(=O)[C@H](Cc1c[nH]cn1)NC(=O)[C@H](CCC(N)=O)NC(=O)[C@H](CCC(N)=O)NC(=O)[C@H](CC(C)C)NC(=O)[C@@H](NC(C)=O)[C@@H](C)O)C(C)C)[C@@H](C)CC)C(C)C)[C@@H](C)O)[C@@H](C)CC)C(=O)N[C@@H](C)C(=O)N[C@@H](CC(=O)O)C(=O)N[C@@H](CC(=O)O)C(=O)N[C@@H](CCCCN)C(=O)N[C@@H](Cc1ccc(O)cc1)C(N)=O` [CGEN-GP4], in the test with THP-1 cells (30 μg/ml peptide), the “inhibition of LPS-induced TNF-α secretion” value is on record as 100%. Also, the “inhibition of proliferation, dose dependence” value in the test on A549 cells was “dose-dependent”.

Consider “Ac-HKLLKVIRKKLVRKTLDMIKKIADDKYNDTFWKEF-NH2 [CGEN-GP5]”, for which the “inhibition of proliferation, dose dependence” value in the test on HCT116, with SW480, in the test with HT29, in the test on MCF7 and in the test on A549 cells was “dose-dependent” in each case. The “inhibition of LPS-induced TNF-α secretion” value in the test on THP-1 cells (10 μg/ml peptide) stood at 100%.

For the compound “IYVWSSKTETVEEPMEEEEAAKEEKEESDDEA (Ac-IYVWSSKTETVEEPMEEEEAAKEEKEESDDEA-NH2) [CGEN-GP3]”, in the test on human PBMCs, the “decrease of IL-1α” value is 30%, the “decrease of IL-1β” value is 60%, the “decrease of IL-2 release” value turned out to be 70% and the “decrease of IL-12p40” value came out at 40%. Further, in the test on human PBMCs, the “decrease of IL-12p70” value is given as 70%, the “decrease of TNFα” value was “approximately 30%” and the “inhibition of GM-CSF release” value is “no effect”.
